# pIC50: −log10 of the molar value. Activity calls are given as the source filed them. How the source made its calls: active means viability on the fitted dose curve at most 10% of control; inactive means the rest.
# Test system: NCI-H1618 multicellular tumor spheroid viability
# Experiment: Anticancer human tumor NCI-H1618 cell line growth inhibition;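 further: spheroids exposed to agents for 7 days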
# Settings: for pIC50: curve of first compound; for viability, T/C: stronger effect = lower value
# Description: Multicellular complex tumor spheroid response to DNA repair inhibitors in combination with DNA-damaging drugs
# This study explores the anticancer activities of DNA-damaging drugs and inhibitors of DNA damage repair, both as single agents and in combinations. Complex tumor spheroids comprised of malignant cells, endothelial cells and mesenchymal stem cells served as an in vitro model for human solid tumors. This model system incorporates physiologically relevant features and patient-derived or established malignant cell lines with clinically relevant genetic alterations from many tumor types. Twenty-six patient-derived or established malignant cell lines were evaluated representing sarcoma, melanoma, small cell lung cancer (SCLC), non-small cell lung cancer (NSCLC), as well as bladder, ovarian and pancreatic cancers. The concentration ranges selected for each drug and investigational agent were based upon clinically achievable concentrations if the clinical Cmax of the agent was known.
# Compounds. The drugs and compounds olaparib (NSC753686), talazoparib (NSC767125), berzosertib (NSC777718), elimusertib (NSC800525), nedisertib (NSC802822), VX-984 (NSC792969), AZD-1390 (NSC803789), temozolomide (NSC362856), topotecan (NSC609699), trabectedin (NSC813783), staurosporine (NSC755774), and gemcitabine (NSC613327) were obtained from the National Cancer Institute (NCI) Developmental Therapeutics Program Chemical Repository. The FDA-approved anticancer drug set is available from the Developmental Therapeutics Program at https://dtp.cancer.gov/organization/dscb/obtaining/available_plates.htm. […] The stock solutions were prepared in dimethyl sulfoxide (DMSO, Sigma-Aldrich, St. Louis, MO, cat. D2650) at 400-fold the tested concentration and stored at -70 degrees C. Prior to their use, the stock solutions were diluted in fresh medium and the final DMSO concentration in the assay was 0.25% (v/v). All drugs and investigational agents were tested over a range starting from a high concentration at or near the clinical Cmax and decreasing in half-log increments. If the clinical Cmax for an agent had not been determined, the highest concentration tested was 10 microM.
# Cell Lines. The patient-derived cancer cell (PDC) lines: 156681-154-R-J1-PDC, 283228-195-R-J1-PDC, 287954-098-R-J1-PDC, 292921-168-R-J2-PDC, 349418-098-R-PDC, 425362-245-T-J1-PDC, 556581-035-R-J1-PDC, and BL0293-F563-PDC were received from the NCI Patient-Derived Models Repository (PDMR, https://pdmr.cancer.gov). The established cell lines HS-SY-2 (RRID:CVCL_8719), MPNST, and SYO-1 (RRID:CVCL_7146) were obtained from the Sloan Kettering Institute. The alveolar soft parts sarcoma cell line ASPS-1 (RRID:CVCL_S738) was established at the NCI and grown from internal seed stocks. The following established cell lines were purchased from the American Type Culture Collection (ATCC, Manassas, VA): G-401 (ATCC, cat. CRL-1441, RRID:CVCL_0270), SW982 (ATCC, cat. HTB-93, RRID:CVCL_1734), VA-ES-BJ (ATCC, cat. CRL-2138, RRID:CVCL_1785), NCI-H719 (ATCC, cat. CRL-5837, RRID:CVCL_1582), NCI-H196 (ATCC, cat. CRL-5823, RRID:CVCL_1509), NCI-H841 (ATCC, cat. CRL-5845, RRID:CVCL_1595), NCI-H1618 (ATCC, cat. CRL-5879, RRID:CVCL_1480), NCI-H1876 (ATCC, cat. CRL-5902, RRID:CVCL_1503), DMS 114 (ATCC, cat. CRL-2066; RRID:CVCL_1174), NCI-H211 (ATCC, cat. CRL-5824; RRID:CVCL_1529), and SW 1271 (ATCC, cat. CRL-2177, RRID:CVCL_1716). The small cell lung cancer cell line COR-L88 was purchased from Sigma-Aldrich (cat. 92031917-1VL, RRID:CVCL_1141). The non-small cell lung cancer cell lines NCI-H226 (RRID:CVCL_1544) and NCI-H322M (RRID:CVCL_1557) were established at the NCI and grown from internal seed stocks. Pooled donor human umbilical vein endothelial cells (HUVEC, Lonza, cat. CC-2519) and human mesenchymal stem cells (hMSC, Lonza, cat. PT-2501) were purchased from Lonza (Walkersville, MD).
# Cell Culture. All cells were maintained in an incubator at 37 degrees C and 5% CO2 with 95% humidity. […]
compound,measurement,setting,value
CNCc1ccc(-c2cc(-c3nc(-c4ccc(S(=O)(=O)C(C)C)cc4)cnc3N)on2)cc1 + Cn1nnc2c(C(N)=O)ncn2c1=O,pIC50,second compound 1 µM,7.24
same,pIC50,second compound 3.16 µM,> 8.02
same,pIC50,second compound 10 µM,> 8.02
same,pIC50,second compound 31.6 µM,> 8.02
same,pIC50,second compound 100 µM,> 8.02
same,"viability, T/C","second compound 1 µM, first compound 0.00949 µM",87.1%
same,"viability, T/C","second compound 1 µM, first compound 0.03 µM",89.3%
same,"viability, T/C","second compound 1 µM, first compound 0.0949 µM",20%
same,"viability, T/C","second compound 1 µM, first compound 0.3 µM",9.42%
same,"viability, T/C","second compound 1 µM, first compound 0.949 µM",1.93%
same,"viability, T/C","second compound 1 µM, first compound 3 µM",0.47%
same,"viability, T/C","second compound 3.16 µM, first compound 0.00949 µM",11.2%
same,"viability, T/C","second compound 3.16 µM, first compound 0.03 µM",23.2%
same,"viability, T/C","second compound 3.16 µM, first compound 0.0949 µM",21.4%
same,"viability, T/C","second compound 3.16 µM, first compound 0.3 µM",2.21%
same,"viability, T/C","second compound 3.16 µM, first compound 0.949 µM",1.04%
same,"viability, T/C","second compound 3.16 µM, first compound 3 µM",0.58%
same,"viability, T/C","second compound 10 µM, first compound 0.00949 µM",8.64%
same,"viability, T/C","second compound 10 µM, first compound 0.03 µM",4.75%
same,"viability, T/C","second compound 10 µM, first compound 0.0949 µM",3.76%
same,"viability, T/C","second compound 10 µM, first compound 0.3 µM",1.59%
same,"viability, T/C","second compound 10 µM, first compound 0.949 µM",0.8%
same,"viability, T/C","second compound 10 µM, first compound 3 µM",16.5%
same,"viability, T/C","second compound 31.6 µM, first compound 0.00949 µM",10.5%
same,"viability, T/C","second compound 31.6 µM, first compound 0.03 µM",14.6%
same,"viability, T/C","second compound 31.6 µM, first compound 0.0949 µM",19.2%
same,"viability, T/C","second compound 31.6 µM, first compound 0.3 µM",1.44%
same,"viability, T/C","second compound 31.6 µM, first compound 0.949 µM",1.18%
same,"viability, T/C","second compound 31.6 µM, first compound 3 µM",18.5%
same,outcome,"second compound 100 µM, first compound 0.00949 µM",inactive
same,"viability, T/C","second compound 100 µM, first compound 0.03 µM",24.1%
same,"viability, T/C","second compound 100 µM, first compound 0.0949 µM",13.9%
same,"viability, T/C","second compound 100 µM, first compound 0.3 µM",1.69%
same,"viability, T/C","second compound 100 µM, first compound 0.949 µM",19.3%
same,"viability, T/C","second compound 100 µM, first compound 3 µM",0.46%
COc1ccc([C@@H](O)c2cc(-c3ncnc4cc(N5CCOCC5)ccc34)c(F)cc2Cl)nn1 + CC[C@@]1(O)C(=O)OCc2c1cc1n(c2=O)Cc2cc3c(CN(C)C)c(O)ccc3nc2-1,pIC50,second compound 0.003 µM,5.59
same,pIC50,second compound 0.00949 µM,> 7.50
same,pIC50,second compound 0.03 µM,> 7.50
same,pIC50,second compound 0.0949 µM,> 7.50
same,pIC50,second compound 0.3 µM,> 7.50
same,"viability, T/C","second compound 0.003 µM, first compound 0.0316 µM",98.9%
same,"viability, T/C","second compound 0.003 µM, first compound 0.1 µM",71.7%
same,"viability, T/C","second compound 0.003 µM, first compound 0.316 µM",95.3%
same,"viability, T/C","second compound 0.003 µM, first compound 1 µM",77%
same,"viability, T/C","second compound 0.003 µM, first compound 3.16 µM",44.2%
same,"viability, T/C","second compound 0.003 µM, first compound 10 µM",14.9%
same,"viability, T/C","second compound 0.00949 µM, first compound 0.0316 µM",42.3%
same,"viability, T/C","second compound 0.00949 µM, first compound 0.1 µM",27.2%
same,"viability, T/C","second compound 0.00949 µM, first compound 0.316 µM",54%
same,"viability, T/C","second compound 0.00949 µM, first compound 1 µM",48.5%
same,"viability, T/C","second compound 0.00949 µM, first compound 3.16 µM",36%
same,"viability, T/C","second compound 0.00949 µM, first compound 10 µM",11.8%
same,"viability, T/C","second compound 0.03 µM, first compound 0.0316 µM",2.44%
same,"viability, T/C","second compound 0.03 µM, first compound 0.1 µM",3.37%
same,"viability, T/C","second compound 0.03 µM, first compound 0.316 µM",3.22%
same,"viability, T/C","second compound 0.03 µM, first compound 1 µM",2.13%
same,"viability, T/C","second compound 0.03 µM, first compound 3.16 µM",2.99%
same,"viability, T/C","second compound 0.03 µM, first compound 10 µM",0.99%
same,"viability, T/C","second compound 0.0949 µM, first compound 0.0316 µM",4.05%
same,"viability, T/C","second compound 0.0949 µM, first compound 0.1 µM",2.6%
same,"viability, T/C","second compound 0.0949 µM, first compound 0.316 µM",6.24%
same,"viability, T/C","second compound 0.0949 µM, first compound 1 µM",2.56%
same,"viability, T/C","second compound 0.0949 µM, first compound 3.16 µM",1.11%
same,"viability, T/C","second compound 0.0949 µM, first compound 10 µM",1.58%
same,"viability, T/C","second compound 0.3 µM, first compound 0.0316 µM",2.38%
same,"viability, T/C","second compound 0.3 µM, first compound 0.1 µM",2.02%
same,"viability, T/C","second compound 0.3 µM, first compound 0.316 µM",2.24%
same,"viability, T/C","second compound 0.3 µM, first compound 1 µM",2.64%
same,"viability, T/C","second compound 0.3 µM, first compound 3.16 µM",1.97%
same,"viability, T/C","second compound 0.3 µM, first compound 10 µM",0.5%
